Measured values taken from US20240199611A1, “ANTIBACTERIAL COMPOUNDS” (JANSSEN SCIENCES IRELAND UNLIMITED COMPANY, priority 2021, published 2024).
In brackets after ≈: the same amount, converted by molar mass. Read-outs that look alike come from different tables or passages of the source.

What was measured:
[1] = test system: Mycobacterium tuberculosis strain EH4.0 expressing green-fluorescent protein (GFP); experiment: microbe, parasite or virus in culture; assay type: cell-based; settings: read-out: pIC50 (converted)
[2] = assay type: physicochemical; settings: 30 μM; for chemical stability (% by LCMS), DMSO: 0 h; for chemical stability (% by LCMS), ACN/H2O / chemical stability (% by LCMS), ACN/0.1N HCl: 48 h; for chemical stability (% by LCMS), ACN/0.1N HCl: pH 1.6
Method: Chemical Stability Testing
Preliminary Protocol • Add 3 μl of a 10 mM DMSO stock solution to 1 ml of the following solvents in a 1.5 ml HPLC vial. • DMSO (reference solution) • H2O/Acetonitril 1/1 (assay solution) • 0.1N HCl/Acetonitril 1/1 (assay solution) • Mix well, […] LCMS • Compare the chromatograms of the two assay solutions with the reference solution and report the additional peaks as degradation peaks

Ca Ch = settings: read-out: CVS Ca Ch IC50
[3] = Mitochondrial toxicity (Glu/Gal) assay; assay type: cell-based
From the text: (§1) The compounds of the invention/examples may have advantages associated with in vitro potency, kill kinetics (i.e. bactericidal effect) in vitro, PK properties, food effect, safety/toxicity (including liver toxicity, coagulation, 5-LO oxygenase), metabolic stability, Ames II negativity, MNT negativity, aqueous based solubility (and ability to formulate) and/or cardiovascular effect e.g. on animals (e.g. anesthetized guinea pig). The data below that was generated/calculated may be obtained using standard methods/assays, for instance that are available in the literature or which may be performed by a supplier (e.g. Microsomal Stability Assay—Cyprotex, Mitochondrial toxicity (Glu/Gal) assay—Cyprotex, as well as literature CYP cocktail inhibition assays). In some instances, GSH was measured (reactive metabolites, glucuronidation) to observe if a dihydrodiol is observed by LCMS (fragmentation ions), which would correspond to a dihydroxylation on the core heterocycle.

AMES II = assay type: cell-based
From the text: as §1

Kinase panel = experiment: Kinase panel; assay type: biochemical
[4] = in vivo
Cyp 3A4 = Cyp 3A4 induction; settings: at 1 μM
Na Ch = experiment: CVS Na Ch
[5] = GSH measurement (reactive metabolites); assay type: in vitro ADME
From the text: as §1

M. tuberculosis H37Rv = settings: strain M. tuberculosis H37Rv, inside macrophages; cited from earlier work

Row | Compound | IC50 ([1]; Test 1 (and/or Test 2)) | chemical stability (% by LCMS), DMSO [2] | chemical stability (% by LCMS), ACN/H2O [2] | chemical stability (% by LCMS), ACN/0.1N HCl [2] | melting point | further results
1 | CC(C)C1=NN(c2ccc(CNC(=O)c3c(C(F)(F)F)nc4ccccn34)cc2F)CCN1S(=O)(=O)C(F)(F)F [Compound 247] | 1.38 nM | 96% | 100% | 100% |  | 
2 | CCc1nc2ncc(C)cn2c1C(=O)NCc1ccc(N2CCN(S(=O)(=O)C(F)(F)F)C=N2)c(F)c1 [Compound 161] |  |  |  |  |  | IC50 (Ca Ch): > 10000 nM; Glu/Gal assay ratio (mitotoxicity) [3]: < 3; AMES II (AMES II): negative; Kinase panel (Kinase panel): negative; bioavailability [4]: good bioavailaibility; Cyp 3A4 induction (% control) (Cyp 3A4): 3.0 % control
3 | Cc1ccc2nc(C(F)F)c(C(=O)NCc3ccc(N4CCN(S(=O)(=O)C(F)(F)F)C(C(C)C)=N4)c(F)c3)n2c1 [Compound 240] | 0.603 nM | 100% | 100% | 100% |  | 
4 | CCc1nc2ccc(C#N)cn2c1C(=O)NCc1ccc(N2CCN(S(=O)(=O)C(F)(F)F)C(OC)=N2)c(F)c1 [Compound 73] |  |  |  |  | 212.08 °C | IC50 (Na Ch): > 10000 nM; GSH / reactive metabolites [5]: no measure of GSH
5 | CCc1nc2ccc(OC)cn2c1C(=O)NCc1ccc(N2CCN(S(=O)(=O)C(F)(F)F)C(OC)=N2)cc1 [Compound 36] | 3.98 nM |  |  |  | 142.03 °C | 
6 | CCc1nc2ncc(Cl)cn2c1C(=O)NCc1cc(F)c(N2CCN(S(=O)(=O)C(F)(F)F)C=N2)c(F)c1 [Compound 47] | 3.16 nM |  |  |  | 149.44 °C | 
7 | COCc1nc2ccc(Cl)cn2c1C(=O)NCc1ccc(N2CCN(S(=O)(=O)C(F)(F)F)C=N2)cc1 [Compound 8] |  |  |  |  | 167.12 °C | IC50 [1]: 251 nM
8 | CCc1nc2ccc(COC)cn2c1C(=O)NCc1ccc(N2CCN(S(=O)(=O)C(F)(F)F)C=N2)cc1 [Compound 43] | 10 nM |  |  |  | 169.05 °C | 
9 | CCc1nc2ccc(C)cn2c1C(=O)NCc1ccc(N2CCN(S(=O)(=O)C(F)(F)F)C(C(=O)N(C)C)=N2)cc1 [Compound 259] |  | 98% | 100% | 100% |  | IC50 [1]: 10.7 nM
10 | CCc1nc2ccc(Cl)cn2c1C(=O)NCc1ccc(N2CCN(S(=O)(=O)C(F)(F)F)C=N2)cc1F [Compound 16] |  |  |  |  | 158.1 °C | IC50 (Na Ch): > 10000 nM
11 | CCc1nc2ccc(Cl)cn2c1C(=O)NCc1ccc(N2CCN(S(C)(=O)=O)C=N2)cc1 [Compound 20] |  |  |  |  | 209.36 °C | IC50 (Ca Ch): > 10000 nM
12 | CCc1nc2ncc(C)cn2c1C(=O)NCc1ccc(N2CCN(S(=O)(=O)C(F)(F)F)C(C)=N2)c(F)c1 [Compound 251] | 0.437 nM | 100% | 100% | 100% |  | 
13 | CCC1=NN(c2ccc(CNC(=O)c3c(C(F)(F)F)nc4ccccn34)cc2F)CCN1S(=O)(=O)C(F)(F)F [Compound 233] | 1.07 nM | 99% | 99% | 99% |  | 
14 | CCC1=NN(c2ncc(CNC(=O)c3c(CC)nc4ncc(C)cn34)cc2F)CCN1S(=O)(=O)C(F)(F)F [Compound 235] | 6.31 nM | 99% | 99% | 98% |  | 
15 | CCc1nc2ccc(Cl)cn2c1C(=O)NCc1ccc(N2CCN(S(=O)(=O)C(F)(F)F)C(OC)=N2)cc1 [Compound 6] |  |  |  |  |  | IC50 (Na Ch): > 10000 nM; Glu/Gal assay ratio (mitotoxicity) [3]: < 3
16 | CCc1nc2cc(C)c(C)cn2c1C(=O)NCc1ccc(N2CCN(S(=O)(=O)C(F)(F)F)C(C(C)C)=N2)c(F)c1 [Compound 241] | 3.47 nM | 100% | 100% | 100% |  | 

Row | Compound | IC50 ([1]; Test 1 (and/or Test 2)) | chemical stability (% by LCMS), DMSO [2] | chemical stability (% by LCMS), ACN/H2O [2] | chemical stability (% by LCMS), ACN/0.1N HCl [2] | melting point | further results
17 | CCc1nc2c(F)cc(Cl)cn2c1C(=O)NCc1ccc(N2CCN(S(=O)(=O)C(F)(F)F)C(C3CC3)=N2)c(F)c1 [Compound 231] | 0.891 nM | 98% | 98% | 98% |  | 
18 | CC1=NN(c2ccc(CNC(=O)c3c(C(F)(F)F)nc4ncc(C)cn34)cc2F)CCN1S(=O)(=O)C(F)(F)F [Compound 257] | 6.03 nM | 99% | 99% | 99% |  | 
19 | O=C(NCc1ccc(N2CCN(S(=O)(=O)C(F)(F)F)C=N2)c(F)c1)c1c(C(F)(F)F)nc2ccccn12 [Compound 152] |  |  |  |  |  | GSH / reactive metabolites [5]: formation of reactive metabolites was blocked; Glu/Gal assay ratio (mitotoxicity) [3]: < 3; bioavailability [4]: good bioavailaibility
20 | CCc1nc2ccc(C)cn2c1C(=O)NCc1ccc(N2CCN(S(=O)(=O)C(F)(F)F)C(C(=O)OC)=N2)cc1 [Compound 258] | 6.17 nM | 99% | 99% | 100% |  | 
21 | CCc1nc2ccc(C)cn2c1C(=O)NCc1ccc(N2CCN(S(=O)(=O)C(F)(F)F)C(C(N)=O)=N2)cc1 [Compound 260] | 32.4 nM | 98% | 100% | 100% |  | 
22 | CCc1nc2ccc(Cl)cn2c1C(=O)NCc1ccc(N2CCN(S(=O)(=O)C(F)(F)F)C=N2)cc1 [Compound 1] |  |  |  |  | 183.46 °C | IC50 (Ca Ch): > 10000 nM; Glu/Gal assay ratio (mitotoxicity) [3]: < 3; bioavailability [4]: good bioavailability
23 | CC1=NN(c2ccc(CNC(=O)c3c(C(F)(F)F)nc4ccccn34)cc2F)CCN1S(=O)(=O)C(F)(F)F [Compound 252] | 1.2 nM | 99% | 99% | 99% |  | 
24 | CCc1nc2ncc(Cl)cn2c1C(=O)NCc1ccc(N2CCN(S(=O)(=O)C(F)(F)F)C=N2)cc1 [Compound 13] |  |  |  |  | 215.87 °C | IC50 (Na Ch): > 10000 nM
25 | CCc1nc2c(F)cc(Cl)cn2c1C(=O)NCc1ccc(N2CCN(S(=O)(=O)C(F)(F)F)C(C(C)C)=N2)c(F)c1 [Compound 238] | 1.58 nM | 100% | 100% | 100% |  | 
26 | CCc1nc2ncc(C)cn2c1C(=O)NCc1ccc(N2CCN(S(=O)(=O)C(F)(F)F)C(C(C)C)=N2)c(F)c1 [Compound 248] | 0.224 nM | 92% | 100% | 100% |  | 
27 | CCc1nc2ncc(C)cn2c1C(=O)NCc1cnc(N2CCN(S(=O)(=O)C(F)(F)F)C(C)=N2)c(F)c1 [Compound 255] | 6.17 nM | 100% | 100% | 98% |  | 
28 | CCC1=NN(c2ccc(CNC(=O)c3c(CC)nc4ncc(C)cn34)cc2F)CCN1S(=O)(=O)C(F)(F)F [Compound 234] | 0.324 nM | 96% | 95% | 97% |  | 
29 | CCc1nc2ccc(Cl)cn2c1C(=O)NCc1ccc(N2CCN(c3nccs3)C(OC)=N2)cc1 [Compound 54] | 11 nM |  |  |  | 233.23 °C | 
30 | CC1=NN(c2ccc(CNC(=O)c3c(C(F)(F)F)nc4ccc(C)cn34)cc2F)CCN1S(=O)(=O)C(F)(F)F [Compound 253] | 1.86 nM | 100% | 100% | 100% |  | 
31 | CCc1nc2ccc(Cl)cn2c1C(=O)NCc1ccc(N2CCN(S(=O)(=O)C(F)(F)F)C=N2)c(F)c1 [Compound 9] |  |  |  |  |  | IC50 (Na Ch): > 10000 nM
32 | CCc1nc2ccc(Cl)cn2c1C(=O)NCc1ccc(N2CCC(c3ccc(OC(F)(F)F)cc3)CC2)cc1 [Compound Q203] |  |  |  |  |  | MIC50 (M. tuberculosis H37Rv): 0.28 nM (≈ 0.156 ng/mL)
